This assay has as its target T1, human TPH1 (Homo sapiens, UniProt P17752).
T1 sequence (P17752 1-444): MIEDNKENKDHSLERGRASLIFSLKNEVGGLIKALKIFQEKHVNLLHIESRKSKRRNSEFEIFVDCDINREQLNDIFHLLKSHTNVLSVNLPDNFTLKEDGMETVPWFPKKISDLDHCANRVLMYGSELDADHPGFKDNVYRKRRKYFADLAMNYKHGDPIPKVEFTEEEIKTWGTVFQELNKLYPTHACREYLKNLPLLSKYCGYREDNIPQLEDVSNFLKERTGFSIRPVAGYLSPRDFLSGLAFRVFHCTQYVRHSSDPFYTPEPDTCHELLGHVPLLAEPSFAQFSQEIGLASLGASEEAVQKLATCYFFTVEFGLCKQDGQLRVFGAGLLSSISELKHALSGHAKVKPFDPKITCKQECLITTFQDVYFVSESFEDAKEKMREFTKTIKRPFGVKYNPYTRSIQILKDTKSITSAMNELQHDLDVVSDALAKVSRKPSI
The assay is described as follows: biochemical. In outline: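 Inhibition is derived from 5-hydroxy-L-tryptophan fluorescence (540 nm emission, 300 nm excitation) after perchloric acid stop, relative to DMSO vehicle. Recombinant full-length human enzyme (40-80 nM) reacts with 40 μM tryptophan plus 100 μM methyltetrahydropterin, pH 7.6 Tris/DTT/catalase, 15° C, 60 min.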
What is called IC50 is the concentration that gives 50% inhibition. Higher therefore signals lower potency. For the compound `Cc1ncc(C2c3c(nc4cc(C(F)(F)F)ccn34)CCN2C(=O)COc2ccc3ccccc3c2)cn1` (stereo not drawn) [Example 3.53.1, 1-(1-(2-methylpyrimidin-5-yl)-7-(trifluoromethyl)-3,4-dihydroimidazo[1,2-a:5,4-c′]dipyridin-2(1H)-yl)-2-(naphthalen-2-yloxy)ethan-1-one], the IC50 amounted to 161 nM.

`O=C(COc1ccc(N2CCOCC2)nc1Cl)N1CCc2nc3cc(C(F)(F)F)ccn3c2C1c1ccc(Cl)cc1F` (stereo not drawn) [Example 3.4.6, 1-(1-(4-chloro-2-fluorophenyl)-7-(trifluoromethyl)-3,4-dihydroimidazo[1,2-a:5,4-c′]dipyridin-2(1H)-yl)-2-((2-chloro-6-morpholinopyridin-3-yl)oxy)ethan-1-one] showed an IC50 of 5 nM.

On to `CS(=O)(=O)c1ccc(OCC(=O)N2CCc3nc4ccccn4c3C2c2ccc(Cl)cc2F)c(Cl)n1` (stereo not drawn) [Example 1.4.14, 1-(1-(4-chloro-2-fluorophenyl)-3,4-dihydroimidazo[1,2-a:5,4-c′]dipyridin-2(1H)-yl)-2-((2-chloro-6-(methylsulfonyl)pyridin-3-yl)oxy)ethan-1-one], for which it took 287 nM to reach half-maximal inhibition (IC50).

As for `CCc1nc(NS(C)(=O)=O)ccc1OCC(=O)N1CCc2nc3ccc(F)cn3c2C1c1sc(C)nc1C` (stereo not drawn) [Example 11.3.1, N-(5-(2-(1-(2,4-dimethylthiazol-5-yl)-8-fluoro-3,4-dihydroimidazo[1,2-a:5,4-c′]dipyridin-2(1H)-yl)-2-oxoethoxy)-6-ethylpyridin-2-yl)methanesulfonamide], half-maximal inhibition (IC50) was put at 48 nM.

As for `Cc1ccc(C2c3c(nc4cc(C(F)(F)F)ccn34)CCN2C(=O)COc2cccnc2Cl)cc1C` (stereo not drawn) [Example 3.10.3, 2-((2-chloropyridin-3-yl)oxy)-1-(1-(3,4-dimethylphenyl)-7-(trifluoromethyl)-3,4-dihydroimidazo[1,2-a:5,4-c′]dipyridin-2(1H)-yl)ethan-1-one], the IC50 worked out at 239 nM.

Take `CCc1nc(NS(C)(=O)=O)ccc1OCC(=O)N1CCc2nc3cccnn3c2C1c1sc(C)nc1C` (stereo not drawn) [Example 16.5.1, N-(5-(2-(9-(2,4-dimethylthiazol-5-yl)-6,9-dihydropyrido[4′,3′:4,5]imidazo[1,2-b]pyridazin-8(7H)-yl)-2-oxoethoxy)-6-ethylpyridin-2-yl)methanesulfonamide]: the midpoint of inhibition, the IC50, lay at 31 nM.

Consider `COc1ccc(C2c3c(nc4cc(C(F)(F)F)ccn34)CCN2C(=O)COc2ccc3c(c2C)CCN(C)C3)c(F)c1` (stereo not drawn) [Example 3.3.7, 2-((2,5-dimethyl-1,2,3,4-tetrahydroisoquinolin-6-yl)oxy)-1-(1-(2-fluoro-4-methoxyphenyl)-7-(trifluoromethyl)-3,4-dihydroimidazo[1,2-a:5,4-c′]dipyridin-2(1H)-yl)ethan-1-one], for which the IC50 was determined as 117 nM.

In the case of `CS(=O)(=O)Nc1ccc(OCC(=O)N2CCc3nc4c(F)cccn4c3C2c2ccc(Cl)cc2F)c(Cl)n1` (stereo not drawn) [Example 15.1.1, N-(6-chloro-5-(2-(1-(4-chloro-2-fluorophenyl)-6-fluoro-3,4-dihydroimidazo[1,2-a:5,4-c′]dipyridin-2(1H)-yl)-2-oxoethoxy)pyridin-2-yl)methanesulfonamide], the IC50 came out at 2650 nM.

On to `Cc1ccc(OCC(=O)N2CCc3nc4cc(C(F)(F)F)ccn4c3C2c2cccnc2F)cc1` (stereo not drawn) [Example 3.2.3, 1-(1-(2-fluoropyridin-3-yl)-7-(trifluoromethyl)-3,4-dihydroimidazo[1,2-a:5,4-c′]dipyridin-2(1H)-yl)-2-(p-tolyloxy)ethan-1-one], for which the midpoint of inhibition, the IC50, lay at 251 nM.

`COc1ccc(C2c3c(nc4ccccn34)CCN2C(=O)COc2ccc3ccccc3c2)cc1O` (stereo not drawn) [Example 1.9.1, 1-(1-(3-hydroxy-4-methoxyphenyl)-3,4-dihydroimidazo[1,2-a:5,4-c′]dipyridin-2(1H)-yl)-2-(naphthalen-2-yloxy)ethan-1-one]: the IC50 worked out at 230 nM.

The compound `COc1ccc(C2c3c(nc4cc(Cl)ccn34)CCN2C(=O)COc2ccc(CN3CCOCC3)cc2Cl)cc1O` (stereo not drawn) [Example 2.8.2, 1-(7-chloro-1-(3-hydroxy-4-methoxyphenyl)-3,4-dihydroimidazo[1,2-a:5,4-c′]dipyridin-2(1H)-yl)-2-(2-chloro-4-(morpholinomethyl)phenoxy)ethan-1-one] had a concentration for half-maximal inhibition (IC50) of 154 nM.

Compound `Cc1ccc(C2c3c(nc4cc(Cl)ccn34)CCN2C(=O)COc2ccc(NS(C)(=O)=O)nc2Cl)c(F)c1` (stereo not drawn) [Example 2.15.1, N-(6-chloro-5-(2-(7-chloro-1-(2-fluoro-4-methylphenyl)-3,4-dihydroimidazo[1,2-a:5,4-c′]dipyridin-2(1H)-yl)-2-oxoethoxy)pyridin-2-yl)methanesulfonamide] had a half-maximal inhibitory concentration (IC50) of 51 nM.

`O=C(NC1CC1)c1ccc(OCC(=O)N2CCc3nc4ccccn4c3C2c2ccc(Cl)cc2F)c(C2CC2)n1` (stereo not drawn) [Example 1.4.13, 5-(2-(1-(4-chloro-2-fluorophenyl)-3,4-dihydroimidazo[1,2-a:5,4-c′]dipyridin-2(1H)-yl)-2-oxoethoxy)-N,6-dicyclopropylpicolinamide]: the IC50 is 36 nM.

As for `COc1ccc(C2c3c(nc4cc(C(F)(F)F)ccn34)CCN2C(=O)COc2nn(C)c(C(F)(F)F)c2Cl)cc1OC` (stereo not drawn) [Example 3.1.25, 2-((4-chloro-1-methyl-5-(trifluoromethyl)-1H-pyrazol-3-yl)oxy)-1-(1-(3,4-dimethoxyphenyl)-7-(trifluoromethyl)-3,4-dihydroimidazo[1,2-a:5,4-c′]dipyridin-2(1H)-yl)ethan-1-one], inhibition was half-maximal at 78 nM (IC50).

`O=C(COc1ccc2ccccc2c1)N1CCc2nc3cc(C(F)(F)F)ccn3c2C1c1cccnc1` (stereo not drawn) [Example 3.36.1, 2-(naphthalen-2-yloxy)-1-(1-(pyridin-3-yl)-7-(trifluoromethyl)-3,4-dihydroimidazo[1,2-a:5,4-c′]dipyridin-2(1H)-yl)ethan-1-one] displayed a concentration for half-maximal inhibition (IC50) of 208 nM.

`COc1cc(F)c(C2c3c(nc4cc(C(F)(F)F)ccn34)CCN2C(=O)COc2ccc3c(c2)CN(C(C)=O)CC3)cc1OC` (stereo not drawn) [Example 3.18.6, 2-((2-acetyl-1,2,3,4-tetrahydroisoquinolin-7-yl)oxy)-1-(1-(2-fluoro-4,5-dimethoxyphenyl)-7-(trifluoromethyl)-3,4-dihydroimidazo[1,2-a:5,4-c′]dipyridin-2(1H)-yl)ethan-1-one] showed a half-inhibitory concentration (IC50) of 6 nM.

As for `COCCN(C)c1ccc(OCC(=O)N2CCc3nc4ccccn4c3C2c2ccc(Cl)cc2F)c(Cl)n1` (stereo not drawn) [Example 1.4.8, 1-(1-(4-chloro-2-fluorophenyl)-3,4-dihydroimidazo[1,2-a:5,4-c′]dipyridin-2(1H)-yl)-2-((2-chloro-6-((2-methoxyethyl)(methyl)amino)pyridin-3-yl)oxy)ethan-1-one], the IC50 is 39 nM.

With `COCCCOc1cc(C2c3c(nc4cc(Cl)ccn34)CCN2C(=O)COc2ccc3ccccc3c2)ccc1OC` (stereo not drawn) [Example 2.11.1, 1-(7-chloro-1-(4-methoxy-3-(3-methoxypropoxy)phenyl)-3,4-dihydroimidazo[1,2-a:5,4-c′]dipyridin-2(1H)-yi)-2-(naphthalen-2-yloxy)ethan-1-one], the half-inhibitory concentration (IC50) was 32 nM.

Turning to `O=C(COc1ccc(N2CCOCC2)nc1Cl)N1CCc2nc3ccccn3c2C1c1nc(-c2ccccc2)no1` (stereo not drawn) [Example 1.8.1, 2-((2-chloro-6-morpholinopyridin-3-yl)oxy)-1-(1-(3-phenyl-1,2,4-oxadiazol-5-yl)-3,4-dihydroimidazo[1,2-a:5,4-c′]dipyridin-2(1H)-yl)ethan-1-one], the IC50 was 16 nM.

For the compound `CCOc1ccc(C2c3c(nc4cc(C(F)(F)F)ccn34)CCN2C(=O)COc2ccc(CN3CCOCC3)c(C)c2C)cc1` (stereo not drawn) [Example 3.25.3, 2-(2,3-dimethyl-4-(morpholinomethyl)phenoxy)-1-(1-(4-ethoxyphenyl)-7-(trifluoromethyl)-3,4-dihydroimidazo[1,2-a:5,4-c′]dipyridin-2(1H)-yl)ethan-1-one], the 50% inhibitory concentration (IC50) came to 51 nM.

In the case of `COc1ccc(COc2cc(C3c4c(nc5cc(Cl)ccn45)CCN3C(=O)COc3ccc4ccccc4c3)ccc2OC)cc1` (stereo not drawn) [Example 2.7.1, 1-(7-chloro-1-(4-methoxy-3-((4-methoxybenzyl)oxy)phenyl)-3,4-dihydroimidazo[1,2-a:5,4-c′]dipyridin-2(1H)-yl)-2-(naphthalen-2-yloxy)ethan-1-one], the IC50 amounted to 60 nM.

`COc1ccc(C2c3c(nc4ccccn34)CCN2C(=O)COc2ccc3ccccc3c2Cl)cc1OC` (stereo not drawn) [Example 1.1.9, 2-((1-chloronaphthalen-2-yl)oxy)-1-(1-(3,4-dimethoxyphenyl)-3,4-dihydroimidazo[1,2-a:5,4-c′]dipyridin-2(1H)-yl)ethan-1-one]: the IC50 was determined as 8 nM.

In the case of `COc1ccc(C2c3c(nc4ccccn34)CCN2C(=O)COc2ccc(CN3CCOCC3)nc2Cl)c(F)c1` (stereo not drawn) [Example 1.3.1, 2-((2-chloro-6-(morpholinomethyl)pyridin-3-yl)oxy)-1-(1-(2-fluoro-4-methoxyphenyl)-3,4-dihydroimidazo[1,2-a:5,4-c′]dipyridin-2(1H)-yl)ethan-1-one], the 50% inhibitory concentration (IC50) was 84 nM.

For the compound `CCc1nc(C)ccc1OCC(=O)N1CCc2nc3cc(C(F)(F)F)ccn3c2C1c1ccc(C)cc1F` (stereo not drawn) [Example 3.22.4, 2-((2-ethyl-6-methylpyridin-3-yl)oxy)-1-(1-(2-fluoro-4-methylphenyl)-7-(trifluoromethyl)-3,4-dihydroimidazo[1,2-a:5,4-c′]dipyridin-2(1H)-yl)ethan-1-one], 17 nM corresponded to half-maximal inhibition (IC50).

These data come from patent US20180155344A1, “TRICYCLIC PIPERIDINE COMPOUNDS” (ACTELION PHARMACEUTICALS LTD, priority 2015, published 2018).
